Reference: patent US5753631A, “Intercellular adhesion mediators” (Cytel Corporation, priority 1995, dated 1998)

What was measured:
[1] = test system: histamine induced leukocyte rolling in rat mesenteric venules; test: Histamine induced leukocyte rolling and adherence in rat mesenteric venules (intravital microscopy); type: in vivo, rat (male Sprague-Dawley); conditions: for effect on histamine induced leukocyte rolling: 10^-5 M histamine, FIG. 15; for Erythrocyte velocity / Leukocyte adherence / Leukocyte emigration / Venular diameter / Wall shear rate: with histamine 10^-5 M, Z, SLN 10 mg/Kg i.v., antibodies 2 mg/Kg i.v.
Method: Surgical procedure. Sixty-four male Sprague-Dawley rats (200-250 g) were maintained on a purified laboratory diet and fasted for 24 hours prior to the experiment. The animals were initially anesthetized with pentobarbital (65 mg/kg body weight), then a tracheotomy was performed to facilitate breathing during the experiment. The right carotid artery was cannulated and systemic arterial pressure was measured with a Statham (Oxnard, Calif.) P23A pressure transducer connected to the carotid artery cannula. Systemic blood pressure and heart rate were continuously recorded with a Grass physiologic recorder (Grass Instruments, Massachusetts). The left jugular vein was also cannulated for drug administration and blood sample collection. After a midline abdominal incision a segment of the mid-jejunum was exteriorized. All exposed tissue was moistened with saline-soaked gauze to minimize evaporation and dehydration.
Intravital microscopy. Rats were placed in a supine position on an adjustable plexiglass microscope stage and the mesentery was draped over an optically clear coverslip that allowed for observation of a 2 cm^2 segment of tissue. The temperature of the pedestal was maintained at 37° C. with a constant temperature circulator (Fisher Scientific, model 80). A small rubber gasket (area=3.14 cm^2) was placed on the mesentery and the outside area of contact between the gasket and mesentery was sealed (to prevent leakage of superfusate from the ring) with a mixture of high vacuum grease (Dow Corning Corp., Midland, Mich.) and white petrolatum (E. Fougera & Co., Melville, N.Y.). Rectal and mesenteric temperatures were continuously monitored using an electrothermometer. The exposed bowel wall was covered with Saran Wrap (Dow Chemical Co., Indiana), and the mesenteric tissue within the gasket was suffused with warmed bicarbonate-buffered saline (BBS; pH 7.4) that was bubbled with a mixture of 5% O2; 5% CO2; 90% N2.
An inverted microscope (Nikon Optiphoto, Japan) with a ×40 objective lens (Nikon Optiphoto, Japan) and a ×10 eyepiece was used to observe the mesenteric microcirculation. The mesentery was transilluminated with a 12 V-100 W direct current-stabilized light source. A video camera (Hitachi, VK-C150, Japan) mounted on the microscope projected the image onto a color monitor (Sony, PVM-2030, Japan), and the images were recorded using a video cassette recorder (Panasonic, NV8950, Japan). A video time-date generator (Panasonic, WJ810, Japan) projected the time, date, and stopwatch function onto the monitor.
Single unbranched venules with diameters ranging between 25 μm and 35 μm and a length>150 μm were selected for study. Venular diameter (Dv) was measured either on- or off-line using a video image-shearing monitor (IPM, La Mesa, Calif.). The number of adherent leukocytes was determined off-line during playback of videotaped images. A leukocyte was considered to be adherent to venular endothelium if it remained stationary for a period equal to or greater than 30 seconds. Adherent cells were expressed as the number per 100 μm length of venule. The number of emigrated leukocytes was also determined off-line during playback of videotaped images. Ary interstitial leukocytes present in the mesentery at the onset of the experiment were subtracted from the total number of leukocytes that accumulated during the course of the experiment. Leukocyte emigration was expressed as the number per microscopic field (1.7×10^-2 mm^2) or 150 μm length of venule. Rolling leukocytes were defined as those white blood cells that moved at a velocity less than that of erythrocytes in the same stream. The flux of rolling leukocytes was determined as the number of rolling leukocytes which crossed a fixed point on the venule over a given period of time. Leukocyte rolling velocity was determined from the time required for a leukocyte to roll along a given distance of the venule.

recombinant E-selectin = biological target: T1, recombinant E-selectin (Homo sapiens, UniProt P16581); test: HL-60 cell binding to recombinant E-selectin; type: cell-based; conditions: for inhibition of binding of HL-60 cells to recombinant E-selectin: FIG. 13
T1 sequence (P16581 22-556 limits assumed): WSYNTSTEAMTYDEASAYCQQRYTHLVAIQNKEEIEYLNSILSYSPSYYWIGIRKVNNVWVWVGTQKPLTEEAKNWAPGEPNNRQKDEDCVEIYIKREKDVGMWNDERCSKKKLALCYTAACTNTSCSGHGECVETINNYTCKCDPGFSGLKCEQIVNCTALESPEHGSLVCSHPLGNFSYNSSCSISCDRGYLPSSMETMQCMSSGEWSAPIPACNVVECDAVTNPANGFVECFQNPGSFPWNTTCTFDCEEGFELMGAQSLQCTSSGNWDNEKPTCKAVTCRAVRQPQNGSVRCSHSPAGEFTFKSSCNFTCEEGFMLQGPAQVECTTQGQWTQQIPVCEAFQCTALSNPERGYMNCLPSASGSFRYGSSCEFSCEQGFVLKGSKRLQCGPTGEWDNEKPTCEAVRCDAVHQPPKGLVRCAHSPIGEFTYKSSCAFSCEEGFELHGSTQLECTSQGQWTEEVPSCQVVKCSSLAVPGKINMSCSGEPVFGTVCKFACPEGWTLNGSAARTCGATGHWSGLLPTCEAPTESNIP
Method: In this assay recombinant soluble E-selectin is bound to the plastic surface of a 96 well ELISA plate. Dilutions of test compounds are added to the wells followed by HL-60 cells which bear the ligand for E-selectin. The cells are allowed to adhere to the E-selectin coated assay plate and the nonadherent cells are removed by washing the plate with an automated plate washer. Bound cells are quantitated by measuring the cellular enzyme myeloperoxidase. The concentration of oligosaccharide required to achieve 50% inhibition of control adhesion is used to compare analogs for potency.
Microflex III 96 well ELISA plates were coated with 50 μL of recombinant E-selectin (4 μg/mL) in Dulbecco's phosphate buffered saline (DPBS) and incubated at room temperature for 3 hours. The plates were then washed three times with 200 μL DPBS containing bovine serum albumin (10 mg/mL: DPBS-BSA) and incubated at room temperature for 60 minutes with DPBS-BSA.
Oligosaccharides to be tested were prepared in 1.5 mL eppendorf tubes by adding enough DPBS to make each sample a 10 mM solution according to its molecular weight. The pH was adjusted to be within 7.0 and 7.4.
After 30 minutes 2×10^5 HL-60 cells (10^7 /mL) were added and incubated for 15 minutes at room temperature. The unbound cells were removed by washing the plate 3 times with HBSS containing HEPES buffer (20 mM), glucose (0.2%), CaCl2 (1 mM) and BSA (10 mg/mL). After removal of the wash buffer the bound cells remaining were lysed by addition of Nonidet P 40 (0.1%) in 25 mM citrate/phosphate buffer. After 5 minutes 50 μL of o-phenylenediamine dihydrochloride (1 mg/mL) in citrate/phosphate buffer containing 0.001% hydrogen peroxide was added to each well. After 5 to 10 minutes the development of color was halted by the addition of 40 μL of H2 SO4. Color developed was measured in a plate reading spectrophotometer at 492 nm.

[2] = test system: IgG immune complex-induced acute lung injury; test: IgG immune complex-induced acute lung injury in the rat; type: in vivo, rat (male Long-Evans); conditions: for effect on IgG immune complex-induced neutrophil accumulation / lung injury: conclusion in words
[3] = i.v. at 2.5, 3.0 and 3.5 h (FIG. 18), P<0.05

| Structure (SMILES) | effect on histamine induced leukocyte rolling [1] | Erythrocyte velocity [1] [mm/sec] | Leukocyte adherence [1] [per 100 μm] | Leukocyte emigration [1] [per field] | Venular diameter [1] [μm] | Wall shear rate [1] [s⁻¹] | inhibition of binding of HL-60 cells to recombinant E-selectin (recombinant E-selectin) | effect on IgG immune complex-induced neutrophil accumulation / lung injury [2] | effect on hemorrhage ([2]; versus PBS treated animals) | effect on lung content of MPO ([2]; versus PBS treated animals) | effect on vascular permeability ([2]; versus PBS treated animals) | effect on leukocyte adherence induced by 10^-5 M histamine ([1]; 10 mg/Kg i.v.) | IC50 (recombinant E-selectin; read-out: IC50 for inhibition of HL-60 cell binding to recombinant E-selectin) [µM] | effect on lung MPO content ([2]; 50 μg (FIG. 19)) | effect on lung MPO content ([2]; 100, 200 and 300 μg (FIG. 19)) | effect on vascular permeability ([2]; all doses, 50-500 μg (FIG. 19)) | reduction in MPO content [2, 3] [%] | reduction in permeability [2, 3] [%] | reduction in hemorrhage ([2]; i.v. at 2.5, 3.0 and 3.5 h (FIG. 18), P=N.S.) [%] | effect on hemorrhage ([2]; two highest doses (FIG. 19)) |
| --- | --- | --- | --- | --- | --- | --- | --- | --- | --- | --- | --- | --- | --- | --- | --- | --- | --- | --- | --- | --- |
| CC(=O)NC1C(O)OC(CO)C(OC2OC(CO)C(O)C(OC3(C(=O)O)CC(O)C(NC(C)=O)C(C(O)C(O)CO)O3)C2O)C1O (stereo not shown) [SLN, reference compound] | had no effect | 3.0 ± 0.5 | 5.5 ± 1.4 | 4.8 ± 2.8 | 31 ± 2 | 495 ± 28 | not | did not inhibit IgG immune complex induced lung injury | no decrease in hemorrhage | no decrease in lung content of MPO | no alteration in vascular permeability value |  |  |  |  |  |  |  |  |  |
| CCO[C@@H]1O[C@H](CO)[C@H](O)[C@H](O[C@@H]2O[C@H](CO)[C@@H](O[C@@H]3O[C@H](CO)[C@H](O)[C@H](O[C@]4(C(=O)O)C[C@H](O)[C@@H](NC(C)=O)[C@H]([C@H](O)[C@H](O)CO)O4)[C@H]3O)[C@H](O[C@@H]3O[C@@H](C)[C@@H](O)[C@@H](O)[C@@H]3O)[C@H]2NC(C)=O)[C@H]1O [Z, Ethyl(sodium(5-acetamido-3,5-dideoxy-α-D-glycero-D-galacto-2-nonulopyanosylonate))-(2-3)-O-(β-D-galactopyranosyl)-(1-4)-O-((α-L-fucopyranosyl)-(1-3))-O-(2-acetamido-2-deoxy-β-D-glucopyranosyl)-(1-3)-O-β-D-galactopyranoside] | inhibited leukocyte rolling | 2.1 ± 0.2 | 2.3 ± 1.9 | 2.0 ± 1.2 | 29 ± 0.2 | 355 ± 14 | inhibited in a concentration dependent manner | blocked IgG |  |  |  | significantly attenuated | ~500 | did not significantly reduce MPO content | significant reductions | significant reductions in vascular permeability | 27 | 20 | 21 | statistically significant reductions in hemorrhage |
